A short description of data set [1]: Oral absorption in rat. Format: ADME, organism-based. The following applies: in vivo.
Data set [2] relates to Liver microsomes. Nature of the data set: Intrinsic clearance in rat liver microsomes assessed per mg of protein at 0.5 uM for 30 mins by HPLC-MS/MS analysis in presence of NADPH. The following applies: 0.5 h. Format: ADME, Microsome. On the technique in general: Microsomes from liver hold many membrane-bound enzymes, among them those of drug oxidation.
A short description of data set [3]: Blood clearance in rat. Format: ADME, organism-based.
In data set [4] the target is Sodium-dependent noradrenaline transporter (Homo sapiens, UniProt P23975). The data set can be described thus: Displacement of [3H]nisoxetine from human recombinant NET by scintillation proximity assay. In general terms: In a radioligand displacement assay an active substance lowers the binding of a labelled ligand.
Sodium-dependent noradrenaline transporter, sequence (P23975 whole entry): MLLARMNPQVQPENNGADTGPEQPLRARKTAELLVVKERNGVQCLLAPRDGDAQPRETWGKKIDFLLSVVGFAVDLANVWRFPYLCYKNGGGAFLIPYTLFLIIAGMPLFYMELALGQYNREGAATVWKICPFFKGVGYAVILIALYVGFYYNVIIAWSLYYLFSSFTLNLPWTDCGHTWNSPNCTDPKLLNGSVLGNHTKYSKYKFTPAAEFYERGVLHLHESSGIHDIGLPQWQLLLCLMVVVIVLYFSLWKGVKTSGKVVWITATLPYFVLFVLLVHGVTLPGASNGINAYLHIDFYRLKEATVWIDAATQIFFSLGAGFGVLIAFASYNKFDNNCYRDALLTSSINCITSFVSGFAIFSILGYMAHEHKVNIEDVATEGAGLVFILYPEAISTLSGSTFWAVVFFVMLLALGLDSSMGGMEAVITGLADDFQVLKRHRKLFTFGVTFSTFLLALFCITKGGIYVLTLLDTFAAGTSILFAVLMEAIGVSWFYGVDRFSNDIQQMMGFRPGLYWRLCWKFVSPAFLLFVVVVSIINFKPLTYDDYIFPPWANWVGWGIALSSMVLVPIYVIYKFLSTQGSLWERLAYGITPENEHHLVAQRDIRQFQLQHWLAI
The nature of data set [5]: Ratio of drug level in brain to blood in rat after 1 hr. Format: ADME, tissue-based. The following applies: read-out: BBR.
Data set [6] is described as follows: Half life in rat. The following applies: in vivo. Format: ADME, organism-based.
The nature of data set [7]: Volume of distribution in rat. Format: ADME, organism-based. The following applies: in vivo.
For data set [8], the target named is Sodium-dependent dopamine transporter (Homo sapiens, UniProt Q01959). The data set can be described thus: Displacement of [3H]WIN-35428 from human recombinant DAT by scintillation proximity assay.
Sodium-dependent dopamine transporter, sequence (Q01959 whole entry): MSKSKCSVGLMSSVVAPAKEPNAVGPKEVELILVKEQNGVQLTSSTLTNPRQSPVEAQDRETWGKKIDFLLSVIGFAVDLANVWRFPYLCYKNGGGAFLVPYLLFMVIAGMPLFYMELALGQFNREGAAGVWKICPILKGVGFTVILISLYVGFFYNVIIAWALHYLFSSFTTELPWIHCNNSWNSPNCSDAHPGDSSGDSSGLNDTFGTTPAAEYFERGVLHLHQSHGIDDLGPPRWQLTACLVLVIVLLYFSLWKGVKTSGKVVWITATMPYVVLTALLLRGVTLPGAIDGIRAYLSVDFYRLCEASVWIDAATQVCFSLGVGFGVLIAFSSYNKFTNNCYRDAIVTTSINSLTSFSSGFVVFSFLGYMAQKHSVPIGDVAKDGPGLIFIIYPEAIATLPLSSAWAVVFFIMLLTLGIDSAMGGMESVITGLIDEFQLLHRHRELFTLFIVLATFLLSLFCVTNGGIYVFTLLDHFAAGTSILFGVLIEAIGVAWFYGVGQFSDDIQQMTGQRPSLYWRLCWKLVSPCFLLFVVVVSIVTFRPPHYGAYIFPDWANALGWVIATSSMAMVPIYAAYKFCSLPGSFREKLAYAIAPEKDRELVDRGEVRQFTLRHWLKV
The test system of data set [9] is Liver microsomes. The data set can be described thus: Intrinsic clearance in human liver microsomes assessed per mg of protein at 0.5 uM for 30 mins by HPLC-MS/MS analysis in presence of NADPH. The following applies: 0.5 h. The class given is ADME, Microsome.
In data set [10] the target is Sodium-dependent serotonin transporter (Homo sapiens, UniProt P31645). Nature of the data set: Displacement of [3H]citalopram from human recombinant SERT scintillation proximity assay.
Sodium-dependent serotonin transporter, sequence (P31645 whole entry): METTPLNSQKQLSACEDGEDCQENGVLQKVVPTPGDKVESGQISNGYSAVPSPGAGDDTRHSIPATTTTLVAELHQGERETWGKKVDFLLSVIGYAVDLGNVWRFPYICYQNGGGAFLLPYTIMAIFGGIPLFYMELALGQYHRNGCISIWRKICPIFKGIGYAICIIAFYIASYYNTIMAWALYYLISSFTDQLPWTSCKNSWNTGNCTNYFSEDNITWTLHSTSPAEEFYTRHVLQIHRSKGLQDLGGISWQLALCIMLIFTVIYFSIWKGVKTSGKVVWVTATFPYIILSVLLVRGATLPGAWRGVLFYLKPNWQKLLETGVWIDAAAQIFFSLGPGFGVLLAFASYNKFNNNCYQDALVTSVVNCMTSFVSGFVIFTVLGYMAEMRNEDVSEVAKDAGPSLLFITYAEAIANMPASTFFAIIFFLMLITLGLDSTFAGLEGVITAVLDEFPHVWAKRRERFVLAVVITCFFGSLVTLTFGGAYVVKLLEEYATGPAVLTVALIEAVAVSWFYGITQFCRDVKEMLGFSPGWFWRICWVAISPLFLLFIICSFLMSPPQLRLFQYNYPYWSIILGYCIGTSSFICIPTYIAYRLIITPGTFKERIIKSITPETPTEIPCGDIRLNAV
Data set [11] in a line: Oral bioavailability in rat. The class given is ADME, organism-based. The following applies: in vivo.
The nature of data set [12]: Hepatic extraction ratio in rat. The following applies: in vivo.
In a further data set the target is Cytochrome P450 3A4 (Homo sapiens, UniProt P08684). Nature of the data set: Inhibition of human CYP3A4 incubated for 10 mins before substrate addition by fluorescence assay.
Cytochrome P450 3A4, sequence (P08684 whole entry): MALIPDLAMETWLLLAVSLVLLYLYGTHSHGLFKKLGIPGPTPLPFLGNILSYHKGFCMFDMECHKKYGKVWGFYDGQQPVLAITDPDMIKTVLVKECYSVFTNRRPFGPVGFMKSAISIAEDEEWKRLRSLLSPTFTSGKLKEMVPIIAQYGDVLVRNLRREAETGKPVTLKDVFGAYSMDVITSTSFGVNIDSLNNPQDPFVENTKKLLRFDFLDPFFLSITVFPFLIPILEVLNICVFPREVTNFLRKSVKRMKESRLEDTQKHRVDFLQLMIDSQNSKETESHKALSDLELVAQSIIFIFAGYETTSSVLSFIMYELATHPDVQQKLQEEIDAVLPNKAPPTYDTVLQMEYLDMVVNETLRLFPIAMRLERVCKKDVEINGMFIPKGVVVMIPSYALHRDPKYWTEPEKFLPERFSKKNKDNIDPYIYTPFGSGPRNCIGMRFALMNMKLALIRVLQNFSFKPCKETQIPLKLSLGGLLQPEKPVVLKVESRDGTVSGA
The target in the next data set is Cytochrome P450 2D6 (Homo sapiens, UniProt P10635). The data set can be described thus: Inhibition of human CYP2D6 incubated for 10 mins before substrate addition by fluorescence assay.
Cytochrome P450 2D6, sequence (P10635 whole entry): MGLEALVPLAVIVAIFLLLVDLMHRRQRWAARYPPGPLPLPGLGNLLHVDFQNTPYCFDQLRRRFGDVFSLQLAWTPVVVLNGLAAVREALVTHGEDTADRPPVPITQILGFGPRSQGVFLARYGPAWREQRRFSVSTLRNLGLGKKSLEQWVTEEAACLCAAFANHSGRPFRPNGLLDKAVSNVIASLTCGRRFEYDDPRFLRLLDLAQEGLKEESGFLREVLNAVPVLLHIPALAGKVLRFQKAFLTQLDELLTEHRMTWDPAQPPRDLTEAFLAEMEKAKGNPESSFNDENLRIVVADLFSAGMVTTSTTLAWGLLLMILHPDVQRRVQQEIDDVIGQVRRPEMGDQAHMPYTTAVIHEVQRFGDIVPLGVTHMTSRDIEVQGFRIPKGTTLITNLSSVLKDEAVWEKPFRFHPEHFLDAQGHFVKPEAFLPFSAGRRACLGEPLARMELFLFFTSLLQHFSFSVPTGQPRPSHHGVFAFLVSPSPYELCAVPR
The target in a further data set is Cytochrome P450 2C9 (Homo sapiens, UniProt P11712). The data set can be described thus: Inhibition of human CYP2C9 incubated for 10 mins before substrate addition by fluorescence assay.
Cytochrome P450 2C9, sequence (P11712 whole entry): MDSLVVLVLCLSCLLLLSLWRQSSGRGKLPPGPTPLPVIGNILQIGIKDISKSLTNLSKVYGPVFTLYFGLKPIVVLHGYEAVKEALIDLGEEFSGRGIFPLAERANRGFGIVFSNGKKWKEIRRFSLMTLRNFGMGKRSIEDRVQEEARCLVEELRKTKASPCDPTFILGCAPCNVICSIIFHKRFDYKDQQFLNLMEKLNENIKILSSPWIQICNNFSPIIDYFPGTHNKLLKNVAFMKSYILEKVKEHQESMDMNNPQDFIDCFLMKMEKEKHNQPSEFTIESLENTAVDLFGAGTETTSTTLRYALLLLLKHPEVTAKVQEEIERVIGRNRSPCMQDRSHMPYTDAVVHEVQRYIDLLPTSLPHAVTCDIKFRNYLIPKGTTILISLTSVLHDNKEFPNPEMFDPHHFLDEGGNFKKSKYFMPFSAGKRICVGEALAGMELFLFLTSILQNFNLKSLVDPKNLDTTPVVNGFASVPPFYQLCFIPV
A further data set concerns the target Cytochrome P450 2C19 (Homo sapiens, UniProt P33261). The data set can be described thus: Inhibition of human CYP2C19 incubated for 10 mins before substrate addition by fluorescence assay.
For the next data set, the target named is T1, Cytochrome P450 1A2 (Homo sapiens, UniProt P05177).
T1 sequence (P05177 whole entry): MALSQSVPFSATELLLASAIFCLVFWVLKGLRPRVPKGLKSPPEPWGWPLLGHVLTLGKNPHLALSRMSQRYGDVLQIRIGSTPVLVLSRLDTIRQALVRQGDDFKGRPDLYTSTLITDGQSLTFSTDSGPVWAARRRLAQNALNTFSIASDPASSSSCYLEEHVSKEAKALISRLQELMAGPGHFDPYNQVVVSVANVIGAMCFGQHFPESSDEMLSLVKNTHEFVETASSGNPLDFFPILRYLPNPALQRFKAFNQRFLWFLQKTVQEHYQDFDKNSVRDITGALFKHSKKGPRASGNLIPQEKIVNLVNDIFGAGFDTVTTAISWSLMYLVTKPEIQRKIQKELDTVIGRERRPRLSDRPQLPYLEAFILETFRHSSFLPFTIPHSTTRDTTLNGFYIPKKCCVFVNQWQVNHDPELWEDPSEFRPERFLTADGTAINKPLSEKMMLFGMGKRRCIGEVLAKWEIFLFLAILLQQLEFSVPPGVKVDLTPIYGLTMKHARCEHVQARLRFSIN
Nature of the data set: Inhibition of human CYP1A2 incubated for 10 mins before substrate addition by fluorescence assay.

We go through two compounds from ChEMBL document CHEMBL1817647, “1-Heteroaryl-6-(3,4-dichlorophenyl)-3-azabicyclo[4.1.0]heptane: further insights into a class of triple re-uptake inhibitors” (Bioorg Med Chem, 2011).

SMILES strings stand for the structures.

Cytochrome P450 2C19, sequence (P33261 whole entry): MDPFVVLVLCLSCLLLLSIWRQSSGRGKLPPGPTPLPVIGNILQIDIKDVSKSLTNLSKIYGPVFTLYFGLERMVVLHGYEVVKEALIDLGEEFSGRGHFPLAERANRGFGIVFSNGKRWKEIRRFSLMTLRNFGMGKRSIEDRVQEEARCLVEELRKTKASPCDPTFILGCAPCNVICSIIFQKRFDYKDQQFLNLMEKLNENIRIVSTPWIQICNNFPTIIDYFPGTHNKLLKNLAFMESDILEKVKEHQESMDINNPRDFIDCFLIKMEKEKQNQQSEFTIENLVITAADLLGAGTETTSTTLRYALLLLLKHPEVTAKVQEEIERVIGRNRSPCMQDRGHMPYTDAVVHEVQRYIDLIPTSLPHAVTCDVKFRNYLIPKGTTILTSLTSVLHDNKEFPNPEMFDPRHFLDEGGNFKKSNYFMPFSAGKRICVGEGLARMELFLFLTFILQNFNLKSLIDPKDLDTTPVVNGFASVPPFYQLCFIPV

In the case of `Cc1cc(C)n(CC23CNCC[C@]2(c2ccc(Cl)c(Cl)c2)C3)n1` (single isomer, unassigned), in [1], the Fa was found to be 50%. Besides, the CL amounted to 5.5 mL/min/g in the data set on Liver microsomes [2] and 2.4 mL/min/g with Liver microsomes [9]. This compound also had a clearance in data set [3] of 52 mL/min/kg. In addition, the Ki is 1 nM in data set [4], 3.16 nM in data set [8] and 0.2 nM in data set [10]. Also, in data set [5], the Kp at 1 h amounted to 0.8. In addition, in data set [6], the half-life is 2.3 h. In [7], this compound showed a Vd of 6.9 L/kg. This compound gave a bioavailability in [11] of 6%.

In [1], `Cc1nc(C)n(CC23CNCC[C@]2(c2ccc(Cl)c(Cl)c2)C3)n1` (single isomer, unassigned; enantiomer 1) yielded a Fa of 94%. The compound further displayed a clearance in data set [3] of 63 mL/min/kg. Further, the hepatic extraction ratio in [12] amounted to 0.8. For the same compound, the Ki in data set [4] was 25.1 nM; in data set [8], 15.8 nM; in data set [10], 2 nM. The IC50 on Cytochrome P450 3A4, against Cytochrome P450 2D6, against Cytochrome P450 2C9, at Cytochrome P450 2C19 and on Cytochrome P450 1A2 was more than 25000 nM in each case. Also, the Kp at 1 h in data set [5] is 0.4. In addition, in [6], the half-life is 1.7 h. The compound further had a volume of distribution (Vd) in data set [7] of 8.1 L/kg. This compound yielded a bioavailability in data set [11] of 17%.

One may read the clearance as the rate of elimination divided by the concentration. A lower clearance goes with a low capacity for elimination. The term Ki denotes the equilibrium dissociation constant of an inhibitor or competing ligand from its target. A word on the half-life: it is the time needed for the level to fall by half in the phase considered. In general, Vd refers to the apparent volume that relates the amount in the body to the concentration in plasma or blood. Higher therefore signals extensive tissue distribution. The bioavailability is dose-corrected exposure relative to a reference, in per cent. Lower therefore signals little systemic uptake. What is called IC50 is the concentration that gives 50% inhibition.
